Assay: RP, Waters CORTECS UPLC C18, 100 × 2.1 mm, 1.6 µm, 40 °C, 0.4 mL/min, estimated dead time 0.55 min; A: water + 0.1% formic acid, pH 3; B: acetonitrile + 0.1% formic acid, pH 3; gradient (min/%B) 0/5 1.12/5 6.41/99.5 10.01/99.5
Details: stereoisomer not certain

LC retention time [min]	Structure (SMILES)
0.963	CC1(O)CCOC(=O)C1 (racemic) [(±)-Mevalonolactone]
1.08	O=C(O)c1ccc(C(=O)O)o1 [2,5-Furandicarboxylic acid]
0.965	Cn1cnc2c(ncn2C2OC(CO)C(O)C2O)c1=N (centres undefined) [1-METHYLADENOSINE]
0.766	O=C(O)c1ccc[nH]1 [PYRROLE-2-CARBOXYLATE]
2.47	CC(CCC(=O)O)C(=O)O (centres undefined) [2-METHYLGLUTARATE]
4.2	CCCCCCCCCC(O)CC(=O)OC(CC(=O)[O-])C[N+](C)(C)C [[(3R)-3-Hydroxydodecanoyl]-L-carnitine]
3.67	CC12CCC(=O)C=C1CCC1C2C(O)CC2(C)C1CCC2(O)C(=O)CO (centres undefined) [CORTISOL]
3.7	O=C(O)CCc1c[nH]c2ccccc12 [Indole-3-propionic acid]
0.76	Nc1nc2nc[nH]c2c(=O)[nH]1 [GUANINE]
4.14	COC(=O)Cc1c[nH]c2ccccc12 [INDOLE-3-METHYL ACETATE]
0.763	O=C(O)c1cccnc1C(=O)O [2,3-Pyridinedicarboxylic acid]
0.792	Cc1ncc2c(c1O)C(=O)OC2 [4-Pyridoxolactone]
2.55	O=CCc1c[nH]c2ccccc12 [INDOLEACETALDEHYDE]
7	CCCCCCCCCCCCCCCCCCCC[n+]1cccc(S(=O)(=O)[O-])c1 [C20-APS]
7.56	CC(C)CCCC(C)C1CCC2C3C(=O)C=C4CC(O)CCC4(C)C3CCC12C (stereo not drawn) [5-Cholesten-3β-ol-7-one]
3.32	CCCCCCC[n+]1cccc(S(=O)(=O)[O-])c1 [C7-APS]
4.16	COc1cc(OC)nc(NC(=O)NS(=O)(=O)N(C)S(C)(=O)=O)n1 [Amidosulfuron]
2.29	CC(C)=CC(=O)NCC(=O)O [3-Methylcrotonyl Glycine]
7.4	CC(C)CCC[C@@H](C)[C@H]1CC[C@H]2[C@@H]3[C@H](O)CC4=CC(=O)CC[C@]4(C)[C@H]3CC[C@]12C [7α-Hydroxy-4-cholesten-3-one]
2.52	Cn1c(=O)c2c(ncn2C)n(C)c1=O [CAFFEINE]
4.5	CCCCCCCCCC=CC(=O)OC(CC(=O)[O-])C[N+](C)(C)C [trans-2-Dodecenoyl-L-carnitine]
2.9	CC1NC(=O)NC1CCCCCC(=O)O (centres undefined) [DETHIOBIOTIN]
3.05	OCCc1c[nH]c2ccccc12 [INDOLE-3-ETHANOL]
4.34	CC(CCC(=O)O)C1CCC2C3C(O)CC4CC(O)CCC4(C)C3CC(O)C12C (centres undefined) [Ursocholic acid (7-epicholic acid)]
5.63	CCCCCCCCC=CCCCCCCCC(=O)OC(CC(=O)[O-])C[N+](C)(C)C [Oleoyl-L-carnitine]

LC retention time [min]	Structure (SMILES)
6.07	CCCCCCCCCCCCCCCC[n+]1cccc(S(=O)(=O)[O-])c1 [C16-APS]
1.66	O=C(O)c1cccc(O)c1O [2,3-DIHYDROXYBENZOATE]
5.49	CCCCCCCCCCCCCC[n+]1cccc(S(=O)(=O)[O-])c1 [C14-APS]
0.727	O=c1[nH]c(=O)c2[nH]cnc2[nH]1 [XANTHINE]
1.19	Nc1ccccc1C(=O)CC(N)C(=O)O (centres undefined) [KYNURENINE]
3.97	NC(Cc1cc(I)c(Oc2cc(I)c(O)c(I)c2)c(I)c1)C(=O)O (centres undefined) [THYROXINE]
6.4	CCCCCCC=CC#CCCCCCCCC(=O)O [Ximeninic Acid]
0.931	CC1OC(n2cnc3c(N)ncnc32)C(O)C1O (centres undefined) [5'-DEOXYADENOSINE]
4.09	COc1nc(C)nc(NC(=O)NS(=O)(=O)c2ccccc2OCCCl)n1 [Triasulfuron]
4.24	COC(=O)c1ccc(CNS(C)(=O)=O)cc1S(=O)(=O)NC(=O)Nc1nc(OC)cc(OC)n1 [Mesosulfuron-methyl]
2.89	NC(=O)Cc1c[nH]c2ccccc12 [INDOLE-3-ACETAMIDE]
6.18	CC(C)=CCCC(C)=CCCC(C)=CCCC=C(C)CCC=C(C)CCC=C(C)C [SQUALENE]
2.61	CC(C)CC(=O)OC(CC(=O)[O-])C[N+](C)(C)C [Isovaleryl-L-carnitine]
3.71	NC(Cc1cc(I)c(Oc2ccc(O)c(I)c2)c(I)c1)C(=O)O (centres undefined) [LIOTHYRONINE]
0.719	O=C(O)c1ccccn1 [PICOLINATE]
2.13	O=C(O)c1ccccc1 [BENZOATE]
0.798	OC1COC(O)C(O)C1O (centres undefined) [ARABINOSE]
0.768	Cc1ncc(CO)c(C(=O)O)c1O [4-PYRIDOXATE]
4.8	CC(CCC(=O)O)C1CCC2C3C(=O)CC4CC(O)CCC4(C)C3CCC12C (centres undefined) [Nutriacholic Acid]
2.13	O=Cc1cccc(O)c1 [3-HYDROXYBENZALDEHYDE]
0.798	OCC1OC(O)C(O)C1O (centres undefined) [RIBOSE]
6.81	CC(C)=CCCC(C)C1CCC2C3CC=C4CC(O)CCC4(C)C3CCC12C (centres undefined) [Desmosterol]
2.47	O=C(O)CCCCC(=O)O [ADIPATE]
1.1	Cc1cn(C2CC(O)C(CO)O2)c(=O)[nH]c1=O (centres undefined) [THYMIDINE]

Structure (SMILES)	LC retention time [min]
CCOC(=O)OC1=C(c2cc(C)ccc2C)C(=O)NC12CCC(OC)CC2 (centres undefined) [Spirotetramat]	4.8
Cc1cccc(C)c1N(Cn1cccn1)C(=O)CCl [Metazachlor]	4.52
COC(=O)C(C)N(C(=O)c1ccco1)c1c(C)cccc1C (centres undefined) [Furalaxyl]	4.79
O=C(NC(=O)c1c(F)cccc1F)Nc1ccc(Oc2ccc(C(F)(F)F)cc2Cl)cc1F [Flufenoxuron]	6.08
CCCN(CCOc1c(Cl)cc(Cl)cc1Cl)C(=O)n1ccnc1 [Prochloraz]	4.73
CNC(=O)CSP(=S)(OC)OC [Dimethoate]	3.27
CC(C)(C)c1ccc(CSc2cnn(C(C)(C)C)c(=O)c2Cl)cc1 [Pyridaben]	6.5
O=c1[nH]c2c(c(=O)n1C1CCCCC1)CCC2 [Lenacil]	3.96
CSC1=NC(C)(c2ccccc2)C(=O)N1Nc1ccccc1 (centres undefined) [Fenamidone]	4.96
CNC(=O)N(C)c1nnc(C(C)(C)C)s1 [Tebuthiuron]	3.68
CC1(C)CN=C(NN=C(C=Cc2ccc(C(F)(F)F)cc2)C=Cc2ccc(C(F)(F)F)cc2)NC1 [Hydramethylnon (Amdro)]	5.14
Nc1cnn(-c2ccccc2)c(=O)c1Cl [Chloridazon]	3.17
CCOC(=O)CCN(SN(C)C(=O)Oc1cccc2c1OC(C)(C)C2)C(C)C [Benfuracarb]	6.01
O=C(NC(=O)c1ccccc1Cl)Nc1ccc(OC(F)(F)F)cc1 [Triflumuron]	5.42
CCOP(=S)(OCC)SCn1c(=O)oc2cc(Cl)ccc21 [Phosalone]	5.7
CNC(=O)Oc1cc(C)c(N(C)C)c(C)c1 [Mexacarbate]	2.61
Cc1ccn2nc(S(=O)(=O)Nc3c(F)cccc3F)nc2n1 [Flumetsulam]	3.43
CC1(C)CON(Cc2ccccc2Cl)C1=O [Clomazone]	4.64
CCOC(=O)C(SP(=S)(OC)OC)c1ccccc1 (centres undefined) [Phenthoate]	5.54
CNC(=O)N(C)c1nc2ccccc2s1 [Methabenzthiazurone]	4.12

Structure (SMILES)	LC retention time [min]
O=[N+]([O-])NC1=NCCN1Cc1ccc(Cl)nc1 [Imidacloprid]	3.19
CC12CCC(O)CC1CCC1C2CC(O)C2(C)C(C3=CC(=O)OC3)CCC12O (centres undefined) [Digoxigenin]	2.45
COc1cc(OC)nc(Oc2cccc(Oc3nc(OC)cc(OC)n3)c2C(=O)[O-])n1.[Na+] [Bispyribac sodium salt]	4.63
NCCc1c[nH]c2ccccc12 [TRYPTAMINE]	2.43
Cc1cc(C)nc(Nc2ccccc2)n1 [Pyrimethanil]	4.13
N#CC(CCc1ccc(Cl)cc1)(Cn1cncn1)c1ccccc1 (centres undefined) [Fenbucanozole]	5.11
COc1ccc(-c2ccccc2)cc1NNC(=O)OC(C)C [Bifenazate]	5.09
O=[N+]([O-])c1cc(C(F)(F)F)c(Cl)c([N+](=O)[O-])c1Nc1ncc(C(F)(F)F)cc1Cl [Fluazinam]	5.97
COC(=O)N(C(=O)N1COC2(C(=O)OC)Cc3cc(Cl)ccc3C2=N1)c1ccc(OC(F)(F)F)cc1 (centres undefined) [Indoxacarb]	5.75
CC(C)(C)C(=O)C(Oc1ccc(Cl)cc1)n1cncn1 (centres undefined) [Triadimefon]	4.95
CC1=C(C(=O)Nc2ccccc2)SCCO1 [Carboxin]	4.3
O=C(NC(=O)c1c(F)cccc1F)Nc1cc(Cl)c(OC(F)(F)C(F)F)c(Cl)c1 [Hexaflumuron]	5.61
C#CCN1C(=O)COc2cc(F)c(N3C(=O)C4=C(CCCC4)C3=O)cc21 [Flumioxazin]	4.77
Cc1nc(N(C)C)nc(OC(=O)N(C)C)c1C [Pirimicarb]	3.06
Cc1ccc(NC(=O)N(C)C)cc1Cl [Chlorotoluron]	4.15
C#CC(C)(C)NC(=O)c1cc(Cl)cc(Cl)c1 [Propyzamide]	5.01
CCC(C)(CC)c1cc(NC(=O)c2c(OC)cccc2OC)on1 [Isoxaben]	5.08
CC(COc1ccc(Oc2ccccc2)cc1)Oc1ccccn1 (centres undefined) [Pyripoxyfen]	6.07
COP(=S)(OC)Oc1nc(Cl)c(Cl)cc1Cl [Chlorpyriphos-methyl]	5.73
CNC(=O)Oc1cccc2c1OC(C)(C)C2 [Carbofuran]	4.09

Reference: the RepoRT retention time repository
